Data set [1] is described as follows: Prolyl amide cis/trans equilibrium of tetrapeptides by NMR in various solvents. Format: physicochemical. As to the method: Conformational analysis of tetrapeptides 2-11 to 2-13 and 2-16 using NMR. […] The lower tendency of aggregation of glycosylated peptides has previously been reported (runkel et al., 1998). The NMR spectra of all tetrapeptides were measured at the same concentration (8 mM). Intramolecular hydrogen bonding was evaluated by temperature coefficient experiments in DMSO-d6 or H2O/D2O (9/1). Because exchangeable protons engaged in intramolecular hydrogen bonds are typically not influenced by strong hydrogen-bonding solvents (Kopple et al., 1969). The prolyl N-terminal geometry and turn structure were investigated by ROESY experiments (Misicka et al., 1998).
Solvent effects. In addition, the influence of different solvents on the geometry of prolyl N-terminus was studied (Table 14). […] In contrast, peptide 2-12 and reference peptide 2-16 display a solvent effect.

For data set [2] the following is noted: in CD2Cl2; cited from earlier work.

Molecules are shown by their SMILES. Where a SMILES comes first, the peptide text is derived from it. [ ]: non-standard residue; d: D form. Where only a bound is given, the exact number is not on record here.

`CC(=O)N[C@@H](CC(C)C)C(=O)N[C@H](Cc1ccccc1)C(=O)N1CCC[C@H]1C(=O)N[C@H](C(=O)N(C)C)C(C)C` [Compound 2-16, Ac-Leu-D-Phe-Pro-Val-NMe2] (Ac-L[dF]PV-NMe2): the “Equilibrium constant Kt/c” value in data set [1] (CD2Cl2, 500 MHz NMR at 25° C.) was 19.00; in data set [1] (CD3OD, 500 MHz NMR at 25° C.), 3.17; in data set [1] (DMSO-d6, 500 MHz NMR at 25° C.), 1.32. Moreover, the “Concentration at which peptide aggregated” value in data set [2] was at least 10000 µM.

The values above are taken from patent publication US20100256333A1, “Peptide-Based Beta Turn Mimetics” (UNIVERSITY OF MANITOBA, priority 2009, published 2010).
